{"source": "ChEMBL document CHEMBL1158279", "about": "“Isolation and structure of leukotriene-A4 hydrolase inhibitor: 8(S)-amino-2(R)-methyl-7-oxononanoic acid produced by Streptomyces diastaticus” (J Nat Prod, 1996)", "key": {"Blood [1]": {"system": "Blood", "experiment": "Inhibition of LTB4 production in human whole blood after 15 mins by ELISA", "type": "functional, tissue-based", "details": "0.25 h"}, "[2]": {"biological_target": "T1, Leukotriene A-4 hydrolase (Homo sapiens, UniProt P09960)", "T1 sequence (P09960 whole entry)": "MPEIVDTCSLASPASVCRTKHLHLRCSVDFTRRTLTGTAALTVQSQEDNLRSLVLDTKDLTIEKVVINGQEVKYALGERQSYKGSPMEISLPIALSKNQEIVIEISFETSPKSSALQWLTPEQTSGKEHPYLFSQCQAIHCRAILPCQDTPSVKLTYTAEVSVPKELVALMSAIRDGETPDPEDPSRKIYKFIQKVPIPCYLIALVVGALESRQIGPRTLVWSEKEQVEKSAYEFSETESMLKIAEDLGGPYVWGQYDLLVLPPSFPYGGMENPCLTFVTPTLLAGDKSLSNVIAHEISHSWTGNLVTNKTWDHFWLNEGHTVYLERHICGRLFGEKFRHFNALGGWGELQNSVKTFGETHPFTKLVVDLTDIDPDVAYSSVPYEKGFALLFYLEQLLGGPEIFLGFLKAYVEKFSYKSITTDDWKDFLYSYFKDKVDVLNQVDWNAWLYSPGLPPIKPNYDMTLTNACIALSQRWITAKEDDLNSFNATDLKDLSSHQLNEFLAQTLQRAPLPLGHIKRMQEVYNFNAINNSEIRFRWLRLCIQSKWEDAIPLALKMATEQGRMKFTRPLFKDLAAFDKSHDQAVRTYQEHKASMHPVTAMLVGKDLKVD", "experiment": "Inhibition of human recombinant LTA4 aminopeptidase activity spectrophotometric analysis"}, "[3]": {"biological_target": "T1, Leukotriene A-4 hydrolase", "experiment": "Inhibition of human recombinant LTA4 hydrolase assessed as LTB4 production after 30 mins by ELISA"}, "[4]": {"biological_target": "T2, Angiotensin-converting enzyme (Oryctolagus cuniculus, UniProt P12822)", "T2 sequence (P12822 whole entry)": "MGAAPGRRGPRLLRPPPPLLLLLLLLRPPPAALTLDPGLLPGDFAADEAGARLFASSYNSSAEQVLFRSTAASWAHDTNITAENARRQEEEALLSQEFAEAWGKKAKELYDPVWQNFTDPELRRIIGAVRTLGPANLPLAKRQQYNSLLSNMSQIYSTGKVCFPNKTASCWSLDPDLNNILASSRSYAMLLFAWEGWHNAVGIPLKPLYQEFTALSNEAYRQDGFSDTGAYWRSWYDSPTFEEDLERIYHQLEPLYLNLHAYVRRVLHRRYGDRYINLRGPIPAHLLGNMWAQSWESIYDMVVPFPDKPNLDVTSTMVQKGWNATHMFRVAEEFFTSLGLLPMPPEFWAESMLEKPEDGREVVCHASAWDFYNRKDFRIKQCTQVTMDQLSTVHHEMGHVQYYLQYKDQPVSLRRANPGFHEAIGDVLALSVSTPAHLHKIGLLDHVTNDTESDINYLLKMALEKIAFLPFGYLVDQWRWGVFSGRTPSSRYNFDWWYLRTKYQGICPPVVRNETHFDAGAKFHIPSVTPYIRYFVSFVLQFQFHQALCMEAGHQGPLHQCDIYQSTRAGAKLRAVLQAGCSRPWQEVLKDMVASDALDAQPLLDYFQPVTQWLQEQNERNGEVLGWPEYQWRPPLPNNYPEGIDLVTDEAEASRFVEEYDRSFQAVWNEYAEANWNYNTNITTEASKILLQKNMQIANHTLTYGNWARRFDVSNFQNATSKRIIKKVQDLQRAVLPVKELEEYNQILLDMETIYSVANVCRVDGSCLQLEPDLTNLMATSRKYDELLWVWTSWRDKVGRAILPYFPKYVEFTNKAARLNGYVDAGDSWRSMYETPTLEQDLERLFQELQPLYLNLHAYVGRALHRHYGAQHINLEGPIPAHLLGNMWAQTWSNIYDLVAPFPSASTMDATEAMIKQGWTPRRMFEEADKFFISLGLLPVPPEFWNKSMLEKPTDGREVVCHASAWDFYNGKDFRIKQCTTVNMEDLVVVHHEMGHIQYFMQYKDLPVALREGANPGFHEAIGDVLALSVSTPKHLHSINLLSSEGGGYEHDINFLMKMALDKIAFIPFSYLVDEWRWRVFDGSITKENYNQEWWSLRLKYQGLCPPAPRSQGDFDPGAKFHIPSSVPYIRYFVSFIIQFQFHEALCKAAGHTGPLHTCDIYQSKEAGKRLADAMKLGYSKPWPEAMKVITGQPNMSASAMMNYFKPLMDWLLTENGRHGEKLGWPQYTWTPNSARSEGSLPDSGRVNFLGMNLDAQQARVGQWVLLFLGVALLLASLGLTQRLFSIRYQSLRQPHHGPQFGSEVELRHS", "experiment": "Inhibition of rabbit lung ACE"}, "Blood [5]": {"system": "Blood", "experiment": "Inhibition of TxB2 production in human whole blood after 15 mins by ELISA", "type": "functional, tissue-based", "details": "0.25 h"}}, "data": [{"compound": "C[C@H](N)C(=O)CCCC[C@@H](C)C(=O)O", "values": [{"measurement": "IC50", "setting": "Blood [1]", "value": 7, "unit": "µM"}, {"measurement": "IC50", "setting": "[2]", "value": 0.3, "unit": "µM"}, {"measurement": "IC50", "setting": "[3]", "value": 0.57, "unit": "µM"}, {"measurement": "IC50", "setting": "[4]", "value": "> 100", "unit": "µM"}, {"measurement": "IC50", "setting": "Blood [5]", "value": "> 30", "unit": "µM"}]}]}
